Measurements as given in patent US12202805B2, “Process for preparing (5S)-{[2-(4-carboxyphenyl)ethyl] |2-(2-{|3-chloro-4'-(trifluoromethyl)biphenyl-4-yl]methoxy}phenyl)ethyl]aminol-5,6,7,8-tetrahydroquinoline-2-carboxylic acid and its crystalline forms for use as pharmaceutically active compound” (Bayer Aktiengesellschaft, priority 2021, dated 2025).
Where two headings read alike, the source gives them in different places.

Test: E-2.3 inhalative, oral and intravenous single doses in healthy male subjects: plasma concentrations and lung deposition
Format: in vivo, human
Settings: for concentration at 0 h: 0 h after dose, heading: Geometric mean of plasma concentrations; for concentration at 0.25 h: 0.25 h after dose; for concentration at 0.5 h: 0.5 h after dose; for concentration at 0.75 h: 0.75 h after dose; for concentration at 1 h: 1 h after dose; for concentration at 1.5 h: 1.5 h after dose; for concentration at 2 h: 2 h after dose; for concentration at 2.5 h: 2.5 h after dose; for concentration at 3 h: 3 h after dose; for concentration at 4 h: 4 h after dose; for concentration at 6 h: 6 h after dose; for concentration at 8 h: 8 h after dose; for concentration at 12 h: 12 h after dose; for concentration at 15 h: 15 h after dose; for concentration at 24 h: 24 h after dose; for concentration at 28 h: 28 h after dose; for concentration at 32 h: 32 h after dose; for concentration at 36 h: 36 h after dose
Procedure: E-2.3 Inhalative, Oral and Intravenous Administration of Single Doses of sGC an Activator in Healthy Male Subjects—Lung Deposition
Healthy white male subjects, aged 18 to 45 years with a body mass index (BMI) above/equal 18.5 and below/equal 29.9 kg/m^2 were treated in a clinical phase I study with a single inhaled dose of 1000 μg (nominal dose), a single inhaled dose of 1000 μg (nominal dose)+charcoal block, a single oral dose of 1000 μg and a single infusion over 2 h of 100 μg of example 4. As the bioavailability of an intravenous application is generally 100% per definition and therefore higher than in case of an oral or […], the intravenous dose was carefully selected to be lower than the oral and inhaled dose to avoid higher plasma concentration resulting from a high IV dose and potential side effect, e.g. reduction in blood pressure or syncope. Therefore, 100 μg was selected for the IV dose in this investigation. Seven days washout period between treatments was applied. The subjects swallowed a solution for oral administration (20 ml comprising 1000 μg, see under C-2, table 26). The subjects received a solution as a single infusion over 2 hours (2 ml comprising 100 μg, see under C-2 table 26). The subjects inhaled the drug powder from capsules (see under C-1, tables 17 and 20) inserted into a handheld inhalation device by one deep inhalative breath. After inhalation of the dry powder formulation of this drug, some parts of the nominal dose remain in the capsule and the device, the dose which reaches the body at the mouthpiece is called the emitted dose. The emitted dose can be calculated/determined as followed: nominal dose−(remains in the capsule+remains in the device). After inhalation of the dry powder, one part of the emitted dose enters the gastrointestinal tract (GIT) and is called the oral part of the emitted dose, the other part of the emitted dose which reaches the lung through the respiratory airways is called the lung dose and represents the lung deposited dose. As the lung is the target organ of the effect, the lung deposited dose must be quantified. Lung deposition can be indirectly estimated, by determining the part of the nominal dose which reaches the GIT and the remains in the capsule and the device. To investigate and determine lung deposition, the following investigations were done (see also FIG. 59): • 1—Inhaled application of a single dose of 1000 μg of the dry powder. • 2—Inhaled application of a single dose of 1000 μg of the dry powder in combination with oral administration of charcoal block. The charcoal block capped the oral absorption of GIT part of the dose, as example 4 completely adsorbed to charcoal block. This implies that the concentrations of example 4 measured reach the systemic circulation via the lung. • 3—Administration of a single oral dose of […] example 4 to determine the oral absorption. • 4—Administration of a 2 h infusion of example 4 to investigate the elimination.

[1] = male, human, plasma, inhaled, 1000 μg, healthy male subjects, single 1000 μg inhale + Charcoal Block, N = 16, read-out: Geometric mean of plasma concentrations
[2] = male, human, plasma, inhaled, 1000 μg, healthy male subjects, single 1000 μg inhale, N = 16, read-out: Geometric mean of plasma concentrations
[3] = male, human, plasma, iv, 100 μg, healthy male subjects, 100 μg IV infusion over 2 h, N = 15, read-out: Geometric mean of plasma concentrations
[4] = male, human, plasma, po, 1000 μg, healthy male subjects, single 1000 μg oral, N = 16, read-out: Geometric mean of plasma concentrations

O=C(O)c1ccc(CCN(CCc2ccccc2OCc2ccc(-c3ccc(C(F)(F)F)cc3)cc2Cl)[C@H]2CCCc3nc(C(=O)O)ccc32)cc1 [example 4, (5S)—{[2-(4-Carboxyphenyl)ethyl][2-(2-{[3-chloro-4′-(trifluoromethyl)biphenyl-4-yl]methoxy}phenyl)-ethyl]amino}-5,6,7,8-tetrahydroquinoline-2-carboxylic acid as Monohydrate I]
emitted dose (after inhalation of 1000 μg in humans): 720 µg
oral part of the dose (inhaled 1000 μg): approximately 13 % of the nominal dose
lung dose (part of nominal dose that reached the lung) (inhaled dry powder): 16.3 % of the nominal dose
total part of the dry powder reaching the body (inhaled dry powder): 18.8 % of the nominal dose
concentration at 0 h (male, human, plasma, inhaled, 1000 μg, healthy male subjects, single 1000 μg inhale + Charcoal Block, N = 16): < 0.05 ng/mL
concentration at 0.25 h [1]: 0.0583 ng/mL
concentration at 0.5 h [1]: 0.261 ng/mL
concentration at 0.75 h [1]: 0.491 ng/mL
concentration at 1 h [1]: 0.662 ng/mL
concentration at 1.5 h [1]: 0.9 ng/mL
concentration at 2 h [1]: 0.969 ng/mL
concentration at 2.5 h [1]: 1.02 ng/mL
concentration at 3 h [1]: 0.933 ng/mL
concentration at 4 h [1]: 0.812 ng/mL
concentration at 6 h [1]: 0.508 ng/mL
concentration at 8 h [1]: 0.373 ng/mL
concentration at 12 h [1]: 0.22 ng/mL
concentration at 15 h [1]: 0.157 ng/mL
concentration at 24 h [1]: 0.0931 ng/mL
concentration at 28 h [1]: 0.0761 ng/mL
concentration at 32 h [1]: 0.0696 ng/mL
concentration at 36 h [1]: 0.054 ng/mL
concentration at 0 h (male, human, plasma, inhaled, 1000 μg, healthy male subjects, single 1000 μg inhale, N = 16): < 0.05 ng/mL
concentration at 0.25 h [2]: 0.0628 ng/mL
concentration at 0.5 h [2]: 0.316 ng/mL
concentration at 0.75 h [2]: 0.622 ng/mL
concentration at 1 h [2]: 0.869 ng/mL
concentration at 1.5 h [2]: 1.16 ng/mL
concentration at 2 h [2]: 1.2 ng/mL
concentration at 2.5 h [2]: 1.18 ng/mL
concentration at 3 h [2]: 1.07 ng/mL
concentration at 4 h [2]: 0.927 ng/mL
concentration at 6 h [2]: 0.583 ng/mL
concentration at 8 h [2]: 0.415 ng/mL
concentration at 12 h [2]: 0.25 ng/mL
concentration at 15 h [2]: 0.181 ng/mL
concentration at 24 h [2]: 0.106 ng/mL
concentration at 28 h [2]: 0.0793 ng/mL
concentration at 32 h [2]: 0.0698 ng/mL
concentration at 36 h [2]: 0.058 ng/mL
concentration at 0 h (male, human, plasma, iv, 100 μg, healthy male subjects, 100 μg IV infusion over 2 h, N = 15): < 0.05 ng/mL
concentration at 0.25 h [3]: 1.76 ng/mL
concentration at 0.5 h [3]: 2.52 ng/mL
concentration at 0.75 h [3]: 2.68 ng/mL
concentration at 1 h [3]: 2.99 ng/mL
concentration at 1.5 h [3]: 3.15 ng/mL
concentration at 2 h [3]: 3.07 ng/mL
concentration at 2.083 h (male, human, plasma, iv, 100 μg, healthy male subjects, 100 μg IV infusion over 2 h, N = 15, 2.083 h after dose, read-out: Geometric mean of plasma concentrations): 2.57 ng/mL
concentration at 2.25 h (male, human, plasma, iv, 100 μg, healthy male subjects, 100 μg IV infusion over 2 h, N = 15, 2.25 h after dose, read-out: Geometric mean of plasma concentrations): 1.42 ng/mL
concentration at 2.5 h [3]: 0.559 ng/mL
concentration at 2.75 h (male, human, plasma, iv, 100 μg, healthy male subjects, 100 μg IV infusion over 2 h, N = 15, 2.75 h after dose, read-out: Geometric mean of plasma concentrations): 0.264 ng/mL
concentration at 3 h [3]: 0.132 ng/mL
concentration at 0 h (male, human, plasma, po, 1000 μg, healthy male subjects, single 1000 μg oral, N = 16): < 0.05 ng/mL
concentration at 0.25 h [4]: 0.777 ng/mL
concentration at 0.5 h [4]: 3.64 ng/mL
concentration at 0.75 h [4]: 5.28 ng/mL
concentration at 1 h [4]: 5.68 ng/mL
concentration at 1.5 h [4]: 4.69 ng/mL
concentration at 2 h [4]: 3.32 ng/mL
concentration at 2.5 h [4]: 2.26 ng/mL
concentration at 3 h [4]: 1.6 ng/mL
concentration at 4 h [4]: 1.01 ng/mL
concentration at 6 h [4]: 0.424 ng/mL
concentration at 8 h [4]: 0.233 ng/mL
concentration at 12 h [4]: 0.126 ng/mL
concentration at 15 h [4]: 0.0714 ng/mL
